{"source": "patent US20130281506A1", "about": "“COMBINATION OF A NON-STEROIDAL ANTI-INFLAMMATORY DRUG WITH AN ANTI-HISTAMINIC DRUG INTENDED FOR OPHTHALMIC USE” (ALLERGAN, INC., priority 2012, published 2013)", "key": {"[1]": {"test_system": "seasonal allergic conjunctivitis and rhinoconjunctivitis", "conditions": "fourth week of treatment; p=0.03; cited from earlier work"}, "[2]": {"test_system": "seasonal allergic conjunctivitis", "experiment": "Randomized, multi-centric, open label clinical study: efficacy on signs and symptoms (itching, hyperemia, chemosis, mucous discharge)", "assay_type": "in vivo, human", "conditions": "for mean chemosis score / mean cilliary hyperemia score / mean conjunctival hyperemia score / mean episcleral hyperemia score / mean itching score: score 0-4", "description": "A randomized, multi-centric geographically, open label study to compare the safety and efficacy of the combination of olopatadine hydrochloride 0.1% and ketorolac tromethamine 0.4% w/v ophthalmic solution with olopatadine hydrochloride 0.1% w/v used twice daily for three weeks in adult patients with seasonal allergic conjunctivitis, was completed. The primary objective of this randomized, multi-centric geographically diverse study was to compare the safety and efficacy of the combination of olopatadine and ketorolac with olopatadine in seasonal allergic conjunctivitis. A combination of olopatadine hydrochloride 0.1% w/v and ketorolac tromethamine 0.4% w/v was compared with olopatadine hydrochloride 0.1% w/v alone in the treatment of patients with seasonal allergic conjunctivitis. The test drug was the combination of olopatadine hydrochloride with ketorolac tromethamine compared to olopatadine hydrochloride 0.1% w/v, as three commercially available brands on the market: Winolap®, Opat® and Olo®. These three commercially available brands, as the comparator drug, were provided to the investigators. Any of the three brands of the comparator drug were prescribed by the investigator to the patients per their choice of availability and cost. The patients administered one drop twice daily in each eye for twenty-one days during three weeks. The patients received study medications as well as comparator drug for the entire period. There were five scheduled visits, with screening periods of thirty days and a treatment period of twenty-one days as per protocol. At the end of each visit physicians also rated tolerance and the patient rated acceptability. The efficacy parameters like itching, hyperemia (cilliary, conjunctival, episcleral), chemosis and mucus discharge were compared between groups and scored. The efficacy of the medications was evaluated by comparing the reduction in efficacy parameters, signs and symptoms of allergic conjunctivitis between the treatment groups, based on the twenty-one day period. The efficacy of the study medications was evaluated by comparing the reduction in signs and symptoms of allergic conjunctivitis between the treatment groups. Reduction in the signs and symptoms of allergic conjunctivitis was based on evaluation of efficacy parameters till the end of twenty-one days. For the improvement of allergic conjunctivitis, symptoms like itching, hyperemia, chemosis and mucous discharge were used. The symptoms of allergic conjunctivitis like itching, hyperemia and chemosis were scored as 0, 1, 2, 3 and 4 and mucous discharge was graded as absent or present. [table] Interpretation: •Minimum score: 0; •Maximum score: 4; the higher the score the more severe will be the symptoms of allergic conjunctivitis. In the report, each symptom is graded based on the severity. Efficacy evaluation has been done for first 100 completed cases. The efficacy parameters like itching, hyperemia (cilliary, conjunctival, episcleral), chemosis and mucus discharge were compared between groups."}, "[3]": {"test_system": "adult patients with seasonal allergic conjunctivitis", "experiment": "Same clinical study: safety, tolerability and acceptability", "assay_type": "in vivo, human", "conditions": "mild transient, no treatment required; observed immediately after instillation of eye drop", "description": "The patients administered one drop twice daily in each eye for twenty-one days during three weeks. The patients received study medications as well as comparator drug for the entire period. There were five scheduled visits, with screening periods of thirty days and a treatment period of twenty-one days as per protocol. At the end of each visit physicians also rated tolerance and the patient rated acceptability.\nAt the end of the each visit physicians rated tolerance as Excellent (No adverse drug reactions), Good (Mild adverse reaction not requiring other treatment or necessitating drug withdrawal), Fair (Adverse reactions requiring treatment without hospitalization or necessitating drug withdrawal and Poor (Severe or serious reaction requiring hospitalization and withdrawal of drug) and the patient rated acceptability as Good (No untoward incidence), Fair (Mild adverse reaction not interfering day to day activities) and Poor (Adverse reactions affecting regular day to day activities).\nThe safety of the combination of olopatadine-ketorolac was compared with olopatadin. The safety assessment parameters included the number of patients having adverse events, the types of adverse events, and the number of unexpected, severe or serious adverse events in the two arms."}, "[4]": {"conditions": "visit 3, no statistically significant difference"}}, "note": "Where a name gives a salt, the structure may show the parent alone."}
{"smiles": "CN(C)CC/C=C1/c2ccccc2COc2ccc(CC(=O)O)cc21", "note": "[olopatadine, olopatadine hydrochloride]", "values": [{"measurement": "chemosis compared to placebo", "setting": "[1]", "value": "significant decrease"}, {"measurement": "mean chemosis score", "setting": "[2]; baseline", "value": "1.5±0.99"}, {"measurement": "mean cilliary hyperemia score", "setting": "[2]; baseline", "value": "0.94±0.91"}, {"measurement": "mean conjunctival hyperemia score", "setting": "[2]; baseline", "value": "2.28±0.83"}, {"measurement": "mean episcleral hyperemia score", "setting": "[2]; baseline", "value": "0.84±0.79"}, {"measurement": "mean itching score", "setting": "[2]; baseline, one drop twice daily in each eye", "value": "3±0.67"}, {"measurement": "complaints of mucus discharge", "setting": "[2]; final scheduled visit", "value": "all the enrolled patients were free from the complaints of mucus discharge"}, {"measurement": "mean chemosis score", "setting": "[2]; visit 2", "value": "1.46±0.95"}, {"measurement": "mean cilliary hyperemia score", "setting": "[2]; visit 2", "value": "0.94±0.91"}, {"measurement": "mean conjunctival hyperemia score", "setting": "[2]; visit 2", "value": "2.2±0.84"}, {"measurement": "mean episcleral hyperemia score", "setting": "[2]; visit 2", "value": "0.84±0.79"}, {"measurement": "mean itching score", "setting": "[2]; visit 3 (first week), p=0.012 between groups", "value": "2±0.60"}, {"measurement": "mean cilliary hyperemia score", "setting": "[2]; visit 3", "value": "0.62±0.66"}, {"measurement": "mean chemosis score", "setting": "[2]; [4]", "value": "0.92±0.72"}, {"measurement": "mean conjunctival hyperemia score", "setting": "[2]; [4]", "value": "1.38±0.86"}, {"measurement": "mean episcleral hyperemia score", "setting": "[2]; visit 3, p=0.43 printed", "value": "0.62±0.63"}, {"measurement": "mean itching score", "setting": "[2]; visit 4 (second week), p=0.009 between groups", "value": "1.28±0.67"}, {"measurement": "mean conjunctival hyperemia score", "setting": "[2]; visit 4 (second week), p=0.02 between groups", "value": "0.8±0.60"}, {"measurement": "mean chemosis score", "setting": "[2]; visit 4 (second week), p=0.029 between groups", "value": "0.54±0.57"}, {"measurement": "mean episcleral hyperemia score", "setting": "[2]; visit 4", "value": "0.36±0.56"}, {"measurement": "mean cilliary hyperemia score", "setting": "[2]; visit 4, p=0.06 between groups", "value": "0.28±0.49"}, {"measurement": "mean chemosis score", "setting": "[2]; visit 5 (third week), p=0.00004 between groups", "value": "0.3±0.52"}, {"measurement": "mean itching score", "setting": "[2]; visit 5 (third week), p=0.00009 between groups", "value": "0.78±0.58"}, {"measurement": "mean conjunctival hyperemia score", "setting": "[2]; visit 5 (third week), p=0.0003 between groups", "value": "0.5±0.54"}, {"measurement": "mean episcleral hyperemia score", "setting": "[2]; visit 5", "value": "0.18±0.38"}, {"measurement": "mean cilliary hyperemia score", "setting": "[2]; visit 5, p=0.52 between groups", "value": "0.08±0.34"}, {"measurement": "number of patients experiencing an adverse event", "setting": "[3]", "value": "three"}]}
